Laboratory results taken from patent US20240032541A1, “HERBICIDAL COMPOUNDS” (SYNGENTA CROP PROTECTION AG, priority 2020, published 2024).

Key:
Assay type in all cases: in vivo
[1] = tested on: Amaranthus retoflexus (AMARE); assay: Post-emergence herbicide glasshouse test; conditions: post-emergence (sprayed after 8 days cultivation), 250 g/ha, evaluated after 13 days
Method: (§1) Seeds of a variety of test species are sown in standard soil in pots Amaranthus retoflexus (AMARE), Echinochloa crus-galli (ECHCG), Setaria faberi (SETFA)). After cultivation for one day (pre-emergence) or after 8 days cultivation (post-emergence) under controlled conditions in a glasshouse (at 24/16° C., day/night; 14 hours light; 65% humidity), the plants are sprayed with an aqueous spray solution derived from the formulation of the technical active ingredient in acetone/water (50:50) solution containing 0.5% Tween 20 (polyoxyethelyene sorbitan monolaurate, CAS RN 9005-64-5). Compounds are applied at 250 g/ha unless otherwise stated. The test plants are then grown in a glasshouse under controlled conditions in a glasshouse (at 24/16° C., day/night; 14 hours light; 65% humidity) and watered twice daily. After 13 days for pre and post-emergence, the test is evaluated for the percentage damage caused to the plant. The biological activities are shown in the following table on a five-point scale (5=81-100%; 4=61-80%; 3=41-60%; 2=21-40%; 1=0-20%).

[2] = tested on: Echinochloa crus-galli (ECHCG); assay: Post-emergence herbicide glasshouse test; conditions: post-emergence (sprayed after 8 days cultivation), 250 g/ha, evaluated after 13 days
Method: as §1

[3] = tested on: Setaria faberi (SETFA); assay: Post-emergence herbicide glasshouse test; conditions: post-emergence (sprayed after 8 days cultivation), 250 g/ha, evaluated after 13 days
Method: as §1

[4] = tested on: Amaranthus retoflexus (AMARE); assay: Pre-emergence herbicide glasshouse test; conditions: pre-emergence (sprayed after one day cultivation), 250 g/ha, evaluated after 13 days
Method: as §1

[5] = tested on: Echinochloa crus-galli (ECHCG); assay: Pre-emergence herbicide glasshouse test; conditions: pre-emergence (sprayed after one day cultivation), 250 g/ha, evaluated after 13 days
Method: as §1

[6] = tested on: Setaria faberi (SETFA); assay: Pre-emergence herbicide glasshouse test; conditions: pre-emergence (sprayed after one day cultivation), 250 g/ha, evaluated after 13 days
Method: as §1

Clc1cnc(Oc2cccc3cccc(Oc4ncc(Cl)cn4)c23)nc1 [Compound 1.001, 5-CHLORO-2-[[8-(5-CHLOROPYRIMIDIN-2-YL)OXY-1-NAPHTHYL]OXY]PYRIMIDINE]
percentage damage caused to the plant, five-point scale, AMARE [1]: 3 (3=41-60%) | percentage damage caused to the plant, five-point scale, ECHCG [2]: 4 (4=61-80%) | percentage damage caused to the plant, five-point scale, SETFA [3]: 4 (4=61-80%) | percentage damage caused to the plant, five-point scale, AMARE [4]: 3 (3=41-60%) | percentage damage caused to the plant, five-point scale, ECHCG [5]: 3 (3=41-60%) | percentage damage caused to the plant, five-point scale, SETFA [6]: 4 (4=61-80%)

FC(F)(F)CCCc1cccc2cccc(Oc3ncc(Cl)cn3)c12 [Compound 1.002, 5-chloro-2-[[8-(4,4,4-trifluorobutyl)-1-naphthyl]oxy]pyrimidine]
percentage damage caused to the plant, five-point scale, AMARE [1]: 3 (3=41-60%) | percentage damage caused to the plant, five-point scale, ECHCG [2]: 2 (2=21-40%) | percentage damage caused to the plant, five-point scale, SETFA [3]: 3 (3=41-60%) | percentage damage caused to the plant, five-point scale, AMARE [4]: 1 (1=0-20%) | percentage damage caused to the plant, five-point scale, ECHCG [5]: 1 (1=0-20%) | percentage damage caused to the plant, five-point scale, SETFA [6]: 1 (1=0-20%)

FC(F)(F)CCCc1ncnc2cccc(Oc3ncc(Cl)cn3)c12 [Compound 1.003, 5-(5-chloropyrimidin-2-yl)oxy-4-(4,4,4-trifluorobutyl)quinazoline]
percentage damage caused to the plant, five-point scale, AMARE [1]: 5 (5=81-100%) | percentage damage caused to the plant, five-point scale, ECHCG [2]: 3 (3=41-60%) | percentage damage caused to the plant, five-point scale, SETFA [3]: 3 (3=41-60%) | percentage damage caused to the plant, five-point scale, AMARE [4]: 5 (5=81-100%) | percentage damage caused to the plant, five-point scale, ECHCG [5]: 5 (5=81-100%) | percentage damage caused to the plant, five-point scale, SETFA [6]: 5 (5=81-100%)

CCCCc1nc(C(F)(F)F)nc2cccc(Oc3ncc(Cl)cn3)c12 [Compound 1.005]
percentage damage caused to the plant, five-point scale, AMARE [1]: 5 (5=81-100%) | percentage damage caused to the plant, five-point scale, ECHCG [2]: 5 (5=81-100%) | percentage damage caused to the plant, five-point scale, SETFA [3]: 5 (5=81-100%) | percentage damage caused to the plant, five-point scale, AMARE [4]: 5 (5=81-100%) | percentage damage caused to the plant, five-point scale, ECHCG [5]: 5 (5=81-100%) | percentage damage caused to the plant, five-point scale, SETFA [6]: 5 (5=81-100%)

FC(F)(F)CCOc1nc(C(F)(F)F)nc2cccc(Oc3ncc(Cl)cn3)c12 [Compound 1.006, 5-(5-chloropyrimidin-2-yl)oxy-2-(trifluoromethyl)-4-(3,3,3-trifluoropropoxy)quinazoline]
percentage damage caused to the plant, five-point scale, AMARE [1]: 5 (5=81-100%) | percentage damage caused to the plant, five-point scale, ECHCG [2]: 3 (3=41-60%) | percentage damage caused to the plant, five-point scale, SETFA [3]: 3 (3=41-60%) | percentage damage caused to the plant, five-point scale, AMARE [4]: 5 (5=81-100%) | percentage damage caused to the plant, five-point scale, ECHCG [5]: 3 (3=41-60%) | percentage damage caused to the plant, five-point scale, SETFA [6]: 5 (5=81-100%)

Cc1nc(OCCC(F)(F)F)c2c(Oc3ncc(Cl)cn3)cccc2n1 [Compound 1.007]
percentage damage caused to the plant, five-point scale, AMARE [1]: 3 (3=41-60%) | percentage damage caused to the plant, five-point scale, ECHCG [2]: 1 (1=0-20%) | percentage damage caused to the plant, five-point scale, SETFA [3]: 1 (1=0-20%) | percentage damage caused to the plant, five-point scale, AMARE [4]: 2 (2=21-40%) | percentage damage caused to the plant, five-point scale, ECHCG [5]: 1 (1=0-20%) | percentage damage caused to the plant, five-point scale, SETFA [6]: 3 (3=41-60%)

FC(F)(F)CCOc1ncnc2cccc(Oc3ncc(Cl)cn3)c12 [Compound 1.008]
percentage damage caused to the plant, five-point scale, AMARE [1]: 3 (3=41-60%) | percentage damage caused to the plant, five-point scale, ECHCG [2]: 1 (1=0-20%) | percentage damage caused to the plant, five-point scale, SETFA [3]: 1 (1=0-20%) | percentage damage caused to the plant, five-point scale, AMARE [4]: 5 (5=81-100%) | percentage damage caused to the plant, five-point scale, ECHCG [5]: 1 (1=0-20%) | percentage damage caused to the plant, five-point scale, SETFA [6]: 5 (5=81-100%)

FC(F)(F)CCOc1nccc2cccc(Oc3ncc(Cl)cn3)c12 [Compound 1.009]
percentage damage caused to the plant, five-point scale, AMARE [1]: 1 (1=0-20%) | percentage damage caused to the plant, five-point scale, ECHCG [2]: 1 (1=0-20%) | percentage damage caused to the plant, five-point scale, SETFA [3]: 1 (1=0-20%) | percentage damage caused to the plant, five-point scale, AMARE [4]: 1 (1=0-20%) | percentage damage caused to the plant, five-point scale, ECHCG [5]: 1 (1=0-20%) | percentage damage caused to the plant, five-point scale, SETFA [6]: 1 (1=0-20%)

Fc1cnc(Oc2cccc3nc(C(F)(F)F)nc(CCCC(F)(F)F)c23)nc1 [Compound 1.011]
percentage damage caused to the plant, five-point scale, AMARE [1]: 5 (5=81-100%) | percentage damage caused to the plant, five-point scale, ECHCG [2]: 5 (5=81-100%) | percentage damage caused to the plant, five-point scale, SETFA [3]: 5 (5=81-100%) | percentage damage caused to the plant, five-point scale, AMARE [4]: 5 (5=81-100%) | percentage damage caused to the plant, five-point scale, ECHCG [5]: 5 (5=81-100%) | percentage damage caused to the plant, five-point scale, SETFA [6]: 5 (5=81-100%)

FC(F)(F)CCCc1nccc2cccc(Oc3ncc(Cl)cn3)c12 [Compound 1.012, 8-(5-chloropyrimidin-2-yl)oxy-1-(4,4,4-trifluorobutyl)isoquinoline]
percentage damage caused to the plant, five-point scale, AMARE [1]: 4 (4=61-80%) | percentage damage caused to the plant, five-point scale, ECHCG [2]: 4 (4=61-80%) | percentage damage caused to the plant, five-point scale, SETFA [3]: 4 (4=61-80%) | percentage damage caused to the plant, five-point scale, AMARE [4]: 4 (4=61-80%) | percentage damage caused to the plant, five-point scale, ECHCG [5]: 5 (5=81-100%) | percentage damage caused to the plant, five-point scale, SETFA [6]: 5 (5=81-100%)

Cc1nc(CCCC(F)(F)F)c2c(Oc3ncc(Cl)cn3)cccc2n1 [Compound 1.013, 5-(5-chloropyrimidin-2-yl)oxy-2-methyl-4-(4,4,4-trifluorobutyl)quinazoline]
percentage damage caused to the plant, five-point scale, AMARE [1]: 3 (3=41-60%) | percentage damage caused to the plant, five-point scale, ECHCG [2]: 4 (4=61-80%) | percentage damage caused to the plant, five-point scale, SETFA [3]: 4 (4=61-80%) | percentage damage caused to the plant, five-point scale, AMARE [4]: 3 (3=41-60%) | percentage damage caused to the plant, five-point scale, ECHCG [5]: 4 (4=61-80%) | percentage damage caused to the plant, five-point scale, SETFA [6]: 5 (5=81-100%)

COc1nc(CCCC(F)(F)F)c2c(Oc3ncc(Cl)cn3)cccc2n1 [Compound 1.014, 5-(5-chloropyrimidin-2-yl)oxy-2-methoxy-4-(4,4,4-trifluorobutyl)quinazoline]
percentage damage caused to the plant, five-point scale, AMARE [1]: 5 (5=81-100%) | percentage damage caused to the plant, five-point scale, ECHCG [2]: 5 (5=81-100%) | percentage damage caused to the plant, five-point scale, SETFA [3]: 5 (5=81-100%) | percentage damage caused to the plant, five-point scale, AMARE [4]: 5 (5=81-100%) | percentage damage caused to the plant, five-point scale, ECHCG [5]: 5 (5=81-100%) | percentage damage caused to the plant, five-point scale, SETFA [6]: 5 (5=81-100%)

FC(F)(F)CCCc1cc(C(F)(F)F)nc2cccc(Oc3ncc(Cl)cn3)c12 [Compound 1.015, 5-(5-chloropyrimidin-2-yl)oxy-4-(4,4,4-trifluorobutyl)-2-(trifluoromethyl)quinoline]
percentage damage caused to the plant, five-point scale, AMARE [1]: 5 (5=81-100%) | percentage damage caused to the plant, five-point scale, ECHCG [2]: 4 (4=61-80%) | percentage damage caused to the plant, five-point scale, SETFA [3]: 4 (4=61-80%) | percentage damage caused to the plant, five-point scale, AMARE [4]: 5 (5=81-100%) | percentage damage caused to the plant, five-point scale, ECHCG [5]: 5 (5=81-100%) | percentage damage caused to the plant, five-point scale, SETFA [6]: 5 (5=81-100%)

Cc1nc(CCCC(F)(F)F)c2c(Oc3ncc(Cl)cn3)ccc(Cl)c2n1 [Compound 1.019, 8-chloro-5-(5-chloropyrimidin-2-yl)oxy-2-methyl-4-(4,4,4-trifluorobutyl)quinazoline]
percentage damage caused to the plant, five-point scale, AMARE [1]: 4 (4=61-80%) | percentage damage caused to the plant, five-point scale, ECHCG [2]: 3 (3=41-60%) | percentage damage caused to the plant, five-point scale, SETFA [3]: 2 (2=21-40%) | percentage damage caused to the plant, five-point scale, AMARE [4]: 2 (2=21-40%) | percentage damage caused to the plant, five-point scale, ECHCG [5]: 4 (4=61-80%) | percentage damage caused to the plant, five-point scale, SETFA [6]: 4 (4=61-80%)

Cc1cnc(Oc2cccc3nc(C(F)(F)F)nc(CCCC(F)(F)F)c23)nc1 [Compound 1.020]
percentage damage caused to the plant, five-point scale, AMARE [1]: 4 (4=61-80%) | percentage damage caused to the plant, five-point scale, ECHCG [2]: 5 (5=81-100%) | percentage damage caused to the plant, five-point scale, SETFA [3]: 5 (5=81-100%) | percentage damage caused to the plant, five-point scale, AMARE [4]: 5 (5=81-100%) | percentage damage caused to the plant, five-point scale, ECHCG [5]: 5 (5=81-100%) | percentage damage caused to the plant, five-point scale, SETFA [6]: 5 (5=81-100%)

FC(F)(F)CCCCc1nc(C(F)(F)F)nc2cccc(Oc3ncc(Cl)cn3)c12 [Compound 1.021]
percentage damage caused to the plant, five-point scale, AMARE [1]: 5 (5=81-100%) | percentage damage caused to the plant, five-point scale, ECHCG [2]: 4 (4=61-80%) | percentage damage caused to the plant, five-point scale, SETFA [3]: 4 (4=61-80%) | percentage damage caused to the plant, five-point scale, AMARE [4]: 5 (5=81-100%) | percentage damage caused to the plant, five-point scale, ECHCG [5]: 5 (5=81-100%) | percentage damage caused to the plant, five-point scale, SETFA [6]: 5 (5=81-100%)

FC(F)(F)CCc1nc(C(F)(F)F)nc2cccc(Oc3ncc(Cl)cn3)c12 [Compound 1.022]
percentage damage caused to the plant, five-point scale, AMARE [1]: 4 (4=61-80%) | percentage damage caused to the plant, five-point scale, ECHCG [2]: 4 (4=61-80%) | percentage damage caused to the plant, five-point scale, SETFA [3]: 4 (4=61-80%) | percentage damage caused to the plant, five-point scale, AMARE [4]: 5 (5=81-100%) | percentage damage caused to the plant, five-point scale, ECHCG [5]: 5 (5=81-100%) | percentage damage caused to the plant, five-point scale, SETFA [6]: 5 (5=81-100%)

FC(F)(F)CCCc1nc(C(F)(F)F)nc2cccc(Oc3ncc(Br)cn3)c12 [Compound 1.025]
percentage damage caused to the plant, five-point scale, AMARE [1]: 4 (4=61-80%) | percentage damage caused to the plant, five-point scale, ECHCG [2]: 5 (5=81-100%) | percentage damage caused to the plant, five-point scale, SETFA [3]: 4 (4=61-80%) | percentage damage caused to the plant, five-point scale, AMARE [4]: 4 (4=61-80%) | percentage damage caused to the plant, five-point scale, ECHCG [5]: 5 (5=81-100%) | percentage damage caused to the plant, five-point scale, SETFA [6]: 5 (5=81-100%)
